Toxic doses and inconclusive results are not listed. No stated cut-off is given here; in the data, active means T/C of 150% or more; inactive means T/C below 125%.
Test system: L1210 leukemia ip in BDF1 mice, survival T/C
Experiment: NCI In Vivo Anticancer Drug Screen. Data for tumor model L1210 Leukemia (intraperitoneal) in B6D2F1 (BDF1) mice
Conditions: endpoint: mean survival time, higher = longer survival
Summary of the method: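 Value reflects the ratio of survival in compound-treated mice to survival in vehicle-treated controls, with both groups carrying the same transplanted tumor.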

[1] = dose: 100.0 mg/kg/injection, schedule: Q01DX009 (ip), vehicle: saline
[2] = dose: 100.0 mg/kg/injection, schedule: Q04DX003 (ip), vehicle: saline
[3] = dose: 200.0 mg/kg/injection, schedule: Q01DX009 (ip), vehicle: saline
[4] = dose: 200.0 mg/kg/injection, schedule: Q04DX003 (ip), vehicle: saline
[5] = dose: 400.0 mg/kg/injection, schedule: Q04DX003 (ip), vehicle: saline
[6] = dose: 100.0 mg/kg/injection, schedule: Q01DX001 (ip), vehicle: saline
[7] = dose: 200.0 mg/kg/injection, schedule: Q01DX001 (ip), vehicle: saline
[8] = dose: 100.0 mg/kg/injection, schedule: Q04DX003 (ip), vehicle: Klucel (hydroxypropylcellulose) (HPC)
[9] = dose: 200.0 mg/kg/injection, schedule: Q04DX003 (ip), vehicle: Klucel (hydroxypropylcellulose) (HPC)
[10] = dose: 400.0 mg/kg/injection, schedule: Q01DX009 (ip), vehicle: saline
[11] = dose: 400.0 mg/kg/injection, schedule: Q04DX003 (ip), vehicle: Klucel (hydroxypropylcellulose) (HPC)
[12] = dose: 50.0 mg/kg/injection, schedule: Q01DX009 (ip), vehicle: saline with Tween-80
[13] = dose: 100.0 mg/kg/injection, schedule: Q01DX009 (ip), vehicle: saline with Tween-80
[14] = dose: 200.0 mg/kg/injection, schedule: Q01DX009 (ip), vehicle: saline with Tween-80
[15] = dose: 200.0 mg/kg/injection, schedule: Q01DX001 (ip), vehicle: carboxymethylcellulose (CMC)
[16] = dose: 400.0 mg/kg/injection, schedule: Q01DX001 (ip), vehicle: carboxymethylcellulose (CMC)
[17] = dose: 50.0 mg/kg/injection, schedule: Q01DX001 (ip), vehicle: carboxymethylcellulose (CMC)
[18] = dose: 100.0 mg/kg/injection, schedule: Q01DX001 (ip), vehicle: carboxymethylcellulose (CMC)

Measured: T/C

CCCCCCCCCCC(=O)CCCCCC
inactive: dose: 100.0 mg/kg/injection, schedule: Q01DX009 (ip), vehicle: other 98 % of control | dose: 200.0 mg/kg/injection, schedule: Q01DX009 (ip), vehicle: other 100 % of control | dose: 400.0 mg/kg/injection, schedule: Q01DX009 (ip), vehicle: other 107 % of control

Cn1[nH]c(NC=O)c2cc3c(=O)[nH]c(=O)cc3nc21
inactive: dose: 100.0 mg/kg/injection, schedule: Q01DX001 (ip), vehicle: Klucel (hydroxypropylcellulose) (HPC) 93 % of control | dose: 200.0 mg/kg/injection, schedule: Q01DX001 (ip), vehicle: Klucel (hydroxypropylcellulose) (HPC) 90 % of control

CC(C)(CCCl)N(Cc1ccccc1)Cc1ccccc1
inactive: [1] 93 % of control | [2] 99 % of control | [3] 90 % of control | [4] 95 % of control | [5] 89 % of control

CCCCC(C)(C)COC(=O)Nc1ccccc1
inactive: dose: 100.0 mg/kg/injection, schedule: Q04DX003 (ip), vehicle: other 92 % of control | dose: 200.0 mg/kg/injection, schedule: Q04DX003 (ip), vehicle: other 104 % of control | dose: 400.0 mg/kg/injection, schedule: Q04DX003 (ip), vehicle: other 101 % of control

Nc1ncnc2c1ncn2[C@H]1CC[C@@H](CO)C1
inactive: [6] 106 % of control | [7] 97 % of control

Cc1ccc(S(=O)(=O)Nc2ccc(NS(=O)(=O)c3ccc(C)cc3)cc2)cc1
inactive: [1] 97 % of control | [8] 105 % of control | [3] 94 % of control | [9] 95 % of control | [10] 94 % of control | [11] 101 % of control

Cc1ccc(C)c(Cl)c1
inactive: dose: 50.0 mg/kg/injection, schedule: Q01DX001 (ip), vehicle: saline with Tween-80 95 % of control | dose: 50.0 mg/kg/injection, schedule: Q04DX003 (ip), vehicle: saline with Tween-80 101 % of control | dose: 100.0 mg/kg/injection, schedule: Q01DX001 (ip), vehicle: saline with Tween-80 97 % of control | dose: 100.0 mg/kg/injection, schedule: Q04DX003 (ip), vehicle: saline with Tween-80 100 % of control | dose: 200.0 mg/kg/injection, schedule: Q01DX001 (ip), vehicle: saline with Tween-80 97 % of control | dose: 200.0 mg/kg/injection, schedule: Q04DX003 (ip), vehicle: saline with Tween-80 97 % of control

CC1=C/C(=N/NC(N)=O)CC(C)(C)C1
inactive: [6] 93 % of control | [7] 93 % of control | dose: 400.0 mg/kg/injection, schedule: Q01DX001 (ip), vehicle: saline 98 % of control

O=S(=O)(OC1CCCC1Cl)c1ccc(Br)cc1 (stereo not drawn)
inactive: [12] 93 % of control | [13] 93 % of control | [14] 86 % of control

O=c1[nH]c(Nc2ccccc2)c([N+](=O)[O-])c(=O)[nH]1
inactive: dose: 9.0 mg/kg/injection, schedule: Q01DX001 (ip), vehicle: Klucel (hydroxypropylcellulose) (HPC) 98 % of control | dose: 18.0 mg/kg/injection, schedule: Q01DX001 (ip), vehicle: Klucel (hydroxypropylcellulose) (HPC) 110 % of control | dose: 37.0 mg/kg/injection, schedule: Q01DX001 (ip), vehicle: Klucel (hydroxypropylcellulose) (HPC) 101 % of control | dose: 75.0 mg/kg/injection, schedule: Q01DX001 (ip), vehicle: Klucel (hydroxypropylcellulose) (HPC) 104 % of control

CC1(C(N)=O)CC2C=CC1C2 (stereo not drawn)
inactive: [15] 98 % of control | [16] 95 % of control

Cc1ccc(C(CC(=O)NN)NN)c(O)c1 (stereo not drawn)
inactive: [12] 104 % of control | [13] 101 % of control | [14] 108 % of control

O=C1c2cccc3c(Br)ccc(c23)C(=O)N1C1CCCCCCCCCCC1
inactive: [13] 97 % of control | [14] 90 % of control

Cc1[nH]c(=S)[nH]c(=O)c1CC(O)c1ccccc1 (stereo not drawn)
inactive: [8] 92 % of control | [2] 92 % of control | [4] 94 % of control | [11] 87 % of control | [5] 89 % of control

COC(=O)c1cccc(OC)c1
inactive: [17] 102 % of control | [18] 98 % of control | [15] 104 % of control | [16] 93 % of control

CC(C)(C)C1CCCC(=O)CC1 (stereo not drawn)
inactive: dose: 50.0 mg/kg/injection, schedule: Q01DX001 (ip), vehicle: saline 102 % of control

CCCCNC(=S)S
inactive: [8] 95 % of control | [9] 98 % of control | [11] 104 % of control

Cc1ccc(S(=O)(=O)Nc2cccc3cnccc23)cc1
inactive: [17] 96 % of control | [18] 105 % of control | [15] 102 % of control | [16] 105 % of control

CC(C)=CCC(CCN1CCCCC1)(C(N)=O)c1cccc2ccccc12 (stereo not drawn)
inactive: dose: 1.5 mg/kg/injection, schedule: Q01DX009 (ip), vehicle: Klucel (hydroxypropylcellulose) (HPC) 104 % of control | dose: 3.12 mg/kg/injection, schedule: Q01DX009 (ip), vehicle: Klucel (hydroxypropylcellulose) (HPC) 104 % of control | dose: 6.25 mg/kg/injection, schedule: Q01DX009 (ip), vehicle: Klucel (hydroxypropylcellulose) (HPC) 95 % of control | dose: 6.25 mg/kg/injection, schedule: Q04DX002 (ip), vehicle: Klucel (hydroxypropylcellulose) (HPC) 97 % of control | dose: 12.5 mg/kg/injection, schedule: Q04DX002 (ip), vehicle: Klucel (hydroxypropylcellulose) (HPC) 97 % of control | dose: 25.0 mg/kg/injection, schedule: Q04DX002 (ip), vehicle: Klucel (hydroxypropylcellulose) (HPC) 103 % of control

BrCC(Br)C(Br)CBr (stereo not drawn)
inactive: [1] 93 % of control | [2] 113 % of control | [3] 97 % of control | [4] 108 % of control | [10] 93 % of control | [5] 98 % of control

From PubChem BioAssay AID248 (DTP/NCI, 2004)
